Source: ChEMBL document CHEMBL5236550, “Small molecule selenium-containing compounds: Recent development and therapeutic applications” (Eur J Med Chem, 2021)
In brackets after ≈: the same amount, converted by molar mass.

Tests used:
Staphylococcus aureus [1] = assay: Antibacterial activity against Staphylococcus aureus HEMSA assessed as bacterial growth inhibition incubated for 20 to 24 hrs by microdilution assay; format: functional; conditions: time 20-24 hrs
Enterococcus faecalis [2] = assay: Antibacterial activity against Enterococcus faecalis ATCC 29212 assessed as bacterial growth inhibition incubated for 20 to 24 hrs by microdilution assay; format: functional; conditions: time 20-24 hrs
Staphylococcus aureus [3] = assay: Antibacterial activity against Staphylococcus aureus ATCC 2592 assessed as bacterial growth inhibition incubated for 20 to 24 hrs by microdilution assay; format: functional; conditions: time 20-24 hrs
Carbonic anhydrase 1 = Carbonic anhydrase 1 (Homo sapiens, UniProt P00915); assay: Inhibition of human carbonic anhydrase 1 assessed as inhibition constant
Carbonic anhydrase 1, sequence (P00915 whole entry): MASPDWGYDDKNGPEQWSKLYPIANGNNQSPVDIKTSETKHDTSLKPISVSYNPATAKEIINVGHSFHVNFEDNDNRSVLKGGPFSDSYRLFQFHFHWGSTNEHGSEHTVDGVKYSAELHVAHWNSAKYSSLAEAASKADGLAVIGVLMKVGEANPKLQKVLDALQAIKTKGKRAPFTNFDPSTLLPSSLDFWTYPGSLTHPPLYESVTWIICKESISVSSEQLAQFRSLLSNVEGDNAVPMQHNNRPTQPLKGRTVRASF

Carbonic anhydrase 12 = Carbonic anhydrase 12 (Homo sapiens, UniProt O43570); assay: Inhibition of human carbonic anhydrase 12 assessed as inhibition constant
Carbonic anhydrase 12, sequence (O43570 whole entry): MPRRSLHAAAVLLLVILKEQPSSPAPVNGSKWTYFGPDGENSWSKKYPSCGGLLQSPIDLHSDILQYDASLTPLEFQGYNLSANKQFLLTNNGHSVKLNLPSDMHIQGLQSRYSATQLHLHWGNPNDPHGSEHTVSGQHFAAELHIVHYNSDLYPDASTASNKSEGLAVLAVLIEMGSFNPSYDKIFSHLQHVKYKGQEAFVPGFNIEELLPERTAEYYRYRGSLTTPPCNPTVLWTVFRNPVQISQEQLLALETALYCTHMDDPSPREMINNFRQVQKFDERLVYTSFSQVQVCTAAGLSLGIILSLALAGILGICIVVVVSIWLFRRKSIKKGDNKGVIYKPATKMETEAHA

Carbonic anhydrase 2 = Carbonic anhydrase 2 (Homo sapiens, UniProt P00918); assay: Inhibition of human carbonic anhydrase 2 assessed as inhibition constant
Carbonic anhydrase 9 = Carbonic anhydrase 9 (Homo sapiens, UniProt Q16790); assay: Inhibition of human carbonic anhydrase 9 assessed as inhibition constant
MIA PaCa-2 = assay: Anticancer activity against human MIA PaCa-2 cells xenografted in female Foxn1nu mouse assessed as reduction in tumor growth po,administered once daily for 28 days; format: functional; conditions: time 28 day
U-266 = assay: Anticancer activity against human U-266 cells assessed as cell growth inhibition incubated for 24 hrs by MTS assay; format: functional, cell-based; conditions: U-266, 24 h
Escherichia coli [4] = assay: Antibacterial activity against Escherichia coli EC 1995591 assessed as bacterial growth inhibition incubated for 20 hrs by […]; format: functional
Acinetobacter [5] = assay: Antibacterial activity against Acinetobacter AB 4184/2/5 assessed as bacterial growth inhibition incubated for 20 hrs by […]; format: functional, organism-based; conditions: AB 4184/2/5, 20 h
Staphylococcus aureus [6] = assay: Antibacterial activity against Methicillin resistant Staphylococcus aureus assessed as bacterial growth inhibition incubated for 20 hrs by […]; format: functional
Escherichia coli [7] = assay: Antibacterial activity against Escherichia coli EC 1227107 assessed as bacterial growth inhibition incubated for 20 hrs by […]; format: functional
Escherichia coli [8] = assay: Antibacterial activity against Escherichia coli EC 2151612 assessed as bacterial growth inhibition incubated for 20 hrs by […]; format: functional
Escherichia coli [9] = assay: Antibacterial activity against Escherichia coli NCTC 13351 assessed as bacterial growth inhibition incubated for 20 hrs by […]; format: functional
Pseudomonas aeruginosa [10] = assay: Antibacterial activity against Pseudomonas aeruginosa PA 58 assessed as bacterial growth inhibition incubated for 20 hrs by […]; format: functional
Pseudomonas aeruginosa [11] = assay: Antibacterial activity against Pseudomonas aeruginosa ATCC 27853 assessed as bacterial growth inhibition incubated for 20 hrs by […]; format: functional, organism-based; conditions: ATCC 27853, 20 h
Pseudomonas aeruginosa [12] = assay: Antibacterial activity against Pseudomonas aeruginosa PA T18 assessed as bacterial growth inhibition incubated for 20 hrs by […]; format: functional, organism-based; conditions: PA T18, 20 h
Pseudomonas aeruginosa [13] = assay: Antibacterial activity against Pseudomonas aeruginosa PA 54 assessed as bacterial growth inhibition incubated for 20 hrs by […]; format: functional, organism-based
Klebsiella pneumoniae [14] = assay: Antibacterial activity against Klebsiella pneumoniae KP 1963584 assessed as bacterial growth inhibition incubated for 20 hrs by […]; format: functional, organism-based; conditions: KP 1963584, 20 h
Klebsiella pneumoniae [15] = assay: Antibacterial activity against Klebsiella pneumoniae KP 21513017 assessed as bacterial growth inhibition incubated for 20 hrs by […]; format: functional, organism-based; conditions: KP 21513017, 20 h
Acinetobacter [16] = assay: Antibacterial activity against Acinetobacter AC 1995594 assessed as bacterial growth inhibition incubated for 20 hrs by […]; format: functional, organism-based; conditions: AC 1995594, 20 h
Acinetobacter [17] = assay: Antibacterial activity against Acinetobacter AC 2151300 assessed as bacterial growth inhibition incubated for 20 hrs by […]; format: functional, organism-based; conditions: AC 2151300, 20 h
Klebsiella pneumoniae [18] = assay: Antibacterial activity against Klebsiella pneumoniae NRZ-00103 assessed as bacterial growth inhibition incubated for 20 hrs by […]; format: functional, organism-based; conditions: NRZ-00103, 20 h
Trypanosoma cruzi [19] = assay: Antibacterial activity against Trypanosoma cruzi Dm28c assessed as inhibition of bacterial growth incubated for 72 hrs by microplate reader analysis; format: functional, organism-based
Trypanosoma cruzi [20] = assay: Antibacterial activity against Trypanosoma cruzi Y assessed as bacterial growth inhibition incubated for 24 hrs; format: functional, organism-based
[21] = Inhibition of Vibrio cholerae alpha carbonic anhydrase assessed as inhibition constant by phenol red-based hydrase assay
Aspergillus = assay: Antifungal activity against Aspergillus assessed as fungal growth inhibition incubated by microtitre assay; format: functional
Candida albicans = assay: Antifungal activity against Candida albicans assessed as fungal growth inhibition incubated by microtitre assay; format: functional
SH-SY5Y = assay: Antitumor activity against human SH-SY5Y cells assessed as induction of apoptosis by propidium iodide staining based flow cytometry analysis; format: functional, cell-based
Fusarium = assay: Antifungal activity against Fusarium assessed as fungal growth inhibition incubated by microtitre assay; format: functional
[22] = Inhibition of Vibrio cholerae carbonic anhydrase alpha assessed as inhibition constant by stopped-flow CO2 hydration assay
Carbonic anhydrase 7 = Carbonic anhydrase 7 (Homo sapiens, UniProt P43166); assay: Inhibition of human carbonic anhydrase 7 assessed as inhibition constant by a stopped flow CO2 hydrase assay
Carbonic anhydrase 7, sequence (P43166 whole entry): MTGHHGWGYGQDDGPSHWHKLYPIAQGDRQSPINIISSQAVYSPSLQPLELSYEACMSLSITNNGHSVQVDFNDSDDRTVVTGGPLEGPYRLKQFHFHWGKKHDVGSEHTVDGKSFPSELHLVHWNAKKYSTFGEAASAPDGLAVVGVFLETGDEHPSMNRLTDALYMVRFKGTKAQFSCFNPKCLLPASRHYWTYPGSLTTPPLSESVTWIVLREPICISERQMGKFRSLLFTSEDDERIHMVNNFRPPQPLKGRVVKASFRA

Leishmania major = assay: Antibacterial activity against Leishmania major assessed as bacterial growth inhibition incubated for 72 hrs by MTT assay; format: functional, organism-based
Leishmania amazonensis = assay: […] inhibition incubated for 72 hrs by Giemsa stain based microscopic analysis; format: functional, organism-based
PC-3 = assay: Anticancer activity against human PC-3 cells assessed as cell growth inhibition incubated for 24 to 96 hrs by MTT assay; format: functional, cell-based
DU-145 = assay: Anticancer activity against human DU-145 cells assessed as cell growth inhibition incubated for 24 to 96 hrs by MTT assay; format: functional, cell-based
HeLa [23] = assay: Anticancer activity against human HeLa cells assessed as cell growth inhibition; format: functional, cell-based
HeLa [24] = assay: Anticancer activity against human HeLa assessed as cell growth inhibition; format: functional, cell-based
EBC-1 = assay: Anticancer activity against human EBC-1 cells assessed as cell growth inhibition incubated for 72 hrs by resazurin based spectrophotometer analysis; format: functional; conditions: EBC-1, 72 h
Aspergillus niger = assay: […] inhibition incubated for 24 hrs by agar disc diffusion assay; format: functional
Trypanosoma cruzi [25] = assay: Antibacterial activity against Trypanosoma cruzi Y assessed as fold change in bacterial growth incubated for 24 hrs; format: functional
Bacillus cereus [26] = assay: […] activity against Bacillus cereus assessed as bacterial growth inhibition incubated for 24 hrs by microtitre analysis; format: functional
Enterococcus faecalis [27] = assay: Antibacterial activity against Enterococcus faecalis assessed as bacterial growth inhibition incubated for 24 hrs by microtitre analysis; format: functional
Bacillus cereus [28] = assay: Antibacterial activity against Bacillus cereus assessed as bacterial growth inhibition incubated for 24 hrs by microtitre analysis; format: functional
[29] = test system: Staphylococcus saprophyticus; assay: Antibacterial activity against Staphylococcus saprophyticus assessed as bacterial growth inhibition incubated for 24 hrs by microtitre analysis; format: functional

**Q.** Which results are given for `CC(=O)C[Se]C(=O)c1ccc(Cl)cc1`?
**A.** MIC (Staphylococcus aureus [1]): 3.91 µM (≈ 1.08 µg/mL); MIC (Enterococcus faecalis [2]): 12.5 µM (≈ 3.44 µg/mL); MIC (Staphylococcus aureus [3]): 3.12 µM (≈ 0.86 µg/mL)

**Q.** For `NS(=O)(=O)c1ccc(CCNC(=O)C[Se]c2ccccc2)cc1`, which Ki (Carbonic anhydrase 1) is on record?
**A.** 64.2 nM

**Q.** What about the Ki (Carbonic anhydrase 12) of the same compound?
**A.** 3.8 nM

**Q.** What about the Ki (Carbonic anhydrase 2) of the same compound?
**A.** 4.9 nM

**Q.** What about the Ki (Carbonic anhydrase 9) of the same compound?
**A.** 4.7 nM

**Q.** Which “inhibition (INH)” value (MIA PaCa-2) does the source give for `O=c1c2ccccc2[se]n1-c1ccccc1` [EBSELEN] here?
**A.** 58%

**Q.** What about the IC50 (U-266) of the same compound?
**A.** 40000 nM

**Q.** With `CC(C)(O)c1[se][n+]2ccccc2c1Br.[Cl-]` as the compound, how does the MIC (Escherichia coli [4]) read?
**A.** 0.31 µg/mL

**Q.** What about the IC50 (Acinetobacter [5]) of the same compound?
**A.** 0.31 µg/mL

**Q.** And the MIC (Staphylococcus aureus [6])?
**A.** 0.31 µM

**Q.** And the MIC (Escherichia coli [7])?
**A.** 0.31 µg/mL

**Q.** What about the MIC (Escherichia coli [8]) of the same compound?
**A.** 0.31 µg/mL

**Q.** What about the MIC (Escherichia coli [9]) of the same compound?
**A.** 0.31 µg/mL

**Q.** What about the MIC (Pseudomonas aeruginosa [10]) of the same compound?
**A.** 0.31 µg/mL

**Q.** What about the IC50 (Pseudomonas aeruginosa [11]) of the same compound?
**A.** 0.31 µg/mL

**Q.** What about the IC50 (Pseudomonas aeruginosa [12]) of the same compound?
**A.** 0.31 µg/mL

**Q.** And the IC50 (Pseudomonas aeruginosa [13]; PA 54, 20 h)?
**A.** 0.31 µg/mL

**Q.** What about the MIC (Pseudomonas aeruginosa [13]; PA 54, time 20 hrs) of the same compound?
**A.** 0.31 µg/mL

**Q.** What about the IC50 (Klebsiella pneumoniae [14]) of the same compound?
**A.** 0.31 µg/mL

**Q.** What about the IC50 (Klebsiella pneumoniae [15]) of the same compound?
**A.** 0.31 µg/mL

**Q.** What about the IC50 (Acinetobacter [16]) of the same compound?
**A.** 0.31 µg/mL

**Q.** And the IC50 (Acinetobacter [17])?
**A.** 0.31 µg/mL

**Q.** What about the IC50 (Klebsiella pneumoniae [18]) of the same compound?
**A.** 0.31 µg/mL

**Q.** Which results are given for `O=C(Cn1ccnc1[N+](=O)[O-])NCc1ccccc1` [BENZNIDAZOLE]?
**A.** IC50 (Trypanosoma cruzi [19]): 12500 nM; IC50 (Trypanosoma cruzi [20]): 104000 nM

**Q.** Which Ki [21] does the source give for `NS(=O)(=O)c1ccc([Se]CCc2ccccc2)cc1` here?
**A.** 4.3 nM

**Q.** Which results are given for `c1ccc([Se][Se]c2ccccc2)cc1`?
**A.** MIC (Aspergillus): 0.5 µg/mL (≈ 1.6 µM); MIC (Candida albicans): 4 µg/mL (≈ 12.8 µM); IC50 (SH-SY5Y): 30000 nM; MIC (Fusarium): 2 µg/mL (≈ 6.41 µM)

**Q.** With `NS(=O)(=O)c1ccc(CCNC(=[Se])NC(=O)c2ccc3c(c2)OCO3)cc1` as the compound, how does the Ki [22] read?
**A.** 0.3 nM

**Q.** Which Ki (Carbonic anhydrase 7) does the source give for `Cc1ccc([Se]CC(C)N)cc1` (configuration not stated) here?
**A.** 10400 nM

**Q.** Which results are given for `[Se]=C=NCCCCCCC1Cc2cccc3cccc(c23)C1`?
**A.** IC50 (Leishmania major): 30.1 nM; IC50 (Leishmania amazonensis): 280 nM

**Q.** With `O=c1c2ccccc2[se]n1CCn1[se]c2ccccc2c1=O` [ETHASELEN] as the compound, how does the IC50 (PC-3) read?
**A.** 17800 nM

**Q.** And the IC50 (DU-145)?
**A.** 15400 nM

**Q.** Which results are given for `COC(CNC(=[Se])Nc1ccc([N+](=O)[O-])cc1)c1ccc(O)c(O)c1` (configuration not stated)?
**A.** IC50 (HeLa [23]): 1800 nM; IC50 (HeLa [24]): 3760 nM

**Q.** For `CN(C)C(SCCCCCCN(C)c1ccc(-n2[se]c3ccccc3c2=O)cc1)=[N+](C)C`, which IC50 (EBC-1) is on record?
**A.** < 20000 nM

**Q.** Which “inhibition zone (IZ)” value (Aspergillus niger) does the source give for `CCc1ccccc1-n1c(=[Se])n(C(c2ccccc2)c2ccccc2)c2ccccc21` here?
**A.** 27.01 mm

**Q.** For `CC1(C)OC2=C(CC1[Se]c1ccc(F)cc1)C(=O)C(=O)c1ccccc12` (configuration not stated), which “fold change (FC)” value (Trypanosoma cruzi [25]) is on record?
**A.** 2.6

**Q.** What does the source list for `c1csc([Se][Se]c2cccs2)c1`?
**A.** MIC (Bacillus cereus [26]): 24.2 µg/mL (≈ 74.6 µM); MIC (Enterococcus faecalis [27]): 96.8 µg/mL (≈ 298 µM); MIC (Bacillus cereus [28]): 24.2 µg/mL (≈ 74.6 µM); MIC [29]: 96.8 µg/mL (≈ 298 µM)
